# Results: US20230339851A1, “CXCR6 SULFONAMIDE COMPOUNDS” (CHEMOCENTRYX, INC., priority 2022, published 2023)
# Target: T1, human CXCR6 (Homo sapiens, UniProt O00574)
# T1 construct: expressed in transfected cells
# Assay: Radioligand Binding Assay (125I-CXCL16 displacement)
# Conditions: L1.2 cells stably transfected with human CXCR6 cDNA, 0.1 nM 125I-CXCL16, 4° C., three-hour incubation; read-out: Potency (IC50)
# Procedure, shortened: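 L1.2 cells stably expressing human CXCR6 incubated 3 h at 4 °C in HBSS/0.1% BSA with 0.1 nM 125I-CXCL16 and graded compound concentrations. Bound radioactivity collected by filtration and counted; IC50 from 3-parameter nonlinear regression.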
# T1 sequence (O00574 whole entry): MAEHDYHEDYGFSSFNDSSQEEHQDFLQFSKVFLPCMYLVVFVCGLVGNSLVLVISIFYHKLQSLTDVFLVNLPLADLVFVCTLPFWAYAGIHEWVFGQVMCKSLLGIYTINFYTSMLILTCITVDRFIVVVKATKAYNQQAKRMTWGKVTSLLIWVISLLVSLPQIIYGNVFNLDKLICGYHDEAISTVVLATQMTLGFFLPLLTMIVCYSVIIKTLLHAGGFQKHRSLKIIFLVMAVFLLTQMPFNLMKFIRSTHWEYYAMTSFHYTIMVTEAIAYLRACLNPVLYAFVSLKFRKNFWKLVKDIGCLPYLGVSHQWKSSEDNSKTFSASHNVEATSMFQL
row,Compound,IC50 [nM]
1,COc1cc(NC(=O)C2CCO[C@@H]2C)ccc1S(=O)(=O)Nc1cccc(OC(F)(F)F)c1 (stereo partly shown) [Example 1.364],750 to 2000
2,CCOc1cc(NC(=O)C(O)c2cccc(C(F)(F)F)c2)ccc1S(=O)(=O)Nc1cccc(OC(F)(F)F)c1 (stereo not shown) [Example 1.327],≤ 200
3,CCOc1cc(NC(=O)CC2(O)CCCCC2)ccc1S(=O)(=O)Nc1cccc(OC(F)(F)F)c1 [Example 1.474],200 to 750
4,CCOc1cc(NC(=O)[C@@H](CO)C(C)C)ccc1S(=O)(=O)Nc1cccc(C(C)(F)F)c1 [Example 1.181],≤ 200
5,Cc1cc(NC(=O)C2CCN(C)CC2)ccc1S(=O)(=O)Nc1cccc(C(F)(F)F)c1 [Example 1.522],2000 to 20000
6,CCOc1cc(NC(=O)[C@@H](CO)C(C)C)ccc1S(=O)(=O)Nc1ccc2c(c1)OC(F)(F)O2 [Example 1.050],200 to 750
7,COc1cc(NC(=O)[C@H]2CCOC[C@H]2C)ccc1S(=O)(=O)Nc1cccc(C(F)(F)F)c1 (racemic) [Example 1.219],200 to 750
8,COc1cc(NC(=O)c2ccnn2C)ccc1S(=O)(=O)Nc1cc(OC(F)(F)F)ccc1F [Example 1.448],200 to 750
9,COc1cc(NC(=O)c2ccnn2C)ccc1S(=O)(=O)Nc1cc(Cl)cc(C(F)(F)F)c1 [Example 1.011],750 to 2000
10,O=C(Nc1ccc(S(=O)(=O)Nc2cccc(OC(F)(F)F)c2)c(OC(F)(F)F)c1)[C@@H](CO)c1ccccc1 [Example 1.361],≤ 200
11,CCOc1cc(NC(=O)c2ccnn2C)ccc1S(=O)(=O)Nc1cccc(C(F)(F)F)c1 [Example 1.068],≤ 200
12,CCc1cc(NC(=O)c2ccnn2C)ccc1S(=O)(=O)Nc1cccc(C(F)(F)F)c1 [Example 1.232],≤ 200
13,COc1cc(NC(=O)c2ccnn2C)ccc1S(=O)(=O)Nc1ccc(Br)c(OC(F)(F)F)c1 [Example 1.397],≤ 200
14,CCOc1cc(NC(=O)C2CCN(C)C(=O)C2)ccc1S(=O)(=O)Nc1cccc(OC(F)(F)F)c1 (stereo not shown) [Example 1.316],750 to 2000
15,Cc1cc(NC(=O)C(C)(C)C)ccc1S(=O)(=O)Nc1cccc(C(F)(F)F)c1 [Example 1.434],2000 to 20000
16,COc1cc(NC(=O)C2CC3CCC32O)ccc1S(=O)(=O)Nc1cccc(C(F)(F)F)c1 (stereo not shown) [Example 1.035],200 to 750
17,COc1cc(NC(=O)C2CCOC2)ccc1S(=O)(=O)Nc1cccc(OC(F)(F)F)c1 (stereo not shown) [Example 1.042],750 to 2000
18,CCOc1cc(NC(=O)c2ccc(OC)nc2)ccc1S(=O)(=O)Nc1cccc(OC(F)(F)F)c1 [Example 1.413],≤ 200
19,CCOc1cc(NC(=O)C(O)c2ccc3c(c2)OCO3)ccc1S(=O)(=O)Nc1cccc(OC(F)(F)F)c1 (stereo not shown) [Example 1.091],200 to 750
20,CCOc1cc(NC(=O)[C@@H](CO)C(C)C)ccc1S(=O)(=O)Nc1ccc(C)c(Cl)c1 [Example 1.142],≤ 200
21,CCOc1cc(NC(=O)C2CCCCN2)ccc1S(=O)(=O)Nc1cccc(OC(F)(F)F)c1 (stereo not shown) [Example 1.300],200 to 750
22,CCOc1cc(NC(=O)[C@@H](CO)c2ccccc2)ccc1S(=O)(=O)Nc1cccc(OC)c1C [Example 1.045],2000 to 20000
23,CCOc1cc(NC(=O)[C@@H](O)C(C)C)ccc1S(=O)(=O)Nc1cccc(C(F)(F)F)c1C [Example 1.312],2000 to 20000
24,CCOc1cc(NC(=O)[C@@H](NC(C)=O)C(C)C)ccc1S(=O)(=O)Nc1cccc(C(F)(F)F)c1 [Example 1.507],≤ 200
25,CCCc1cc(NC(=O)[C@@H](O)C(C)C)ccc1S(=O)(=O)Nc1cccc(OC(F)(F)F)c1 [Example 1.071],≤ 200
26,CCc1cc(NC(=O)c2ccccc2)ccc1S(=O)(=O)Nc1cccc(C(F)(F)F)c1 [Example 1.193],200 to 750
27,CCOc1cc(NC(=O)c2ccnnc2)ccc1S(=O)(=O)Nc1cccc(OC(F)(F)F)c1 [Example 1.530],≤ 200
28,COc1cc(NC(=O)c2ccnn2C)ccc1S(=O)(=O)Nc1cccc(C)c1 [Example 1.242],2000 to 20000
29,CCOc1cc(NC(=O)[C@@H](O)C(C)C)ccc1S(=O)(=O)Nc1cccc(OC(F)(F)F)c1C [Example 1.267],2000 to 20000

# Second part, the compound after the results:
row,IC50 [nM],Compound
1,200 to 750,CCOc1cc(NC(=O)C(C)C(O)C2CCCOC2)ccc1S(=O)(=O)Nc1cccc(OC(F)(F)F)c1 (stereo not shown) [Example 1.435]
2,≤ 200,CCCOc1cc(NC(=O)[C@@H](O)C(C)C)ccc1S(=O)(=O)Nc1cccc(OC(F)(F)F)c1 [Example 1.034]
3,≤ 200,CCOc1cc(NC(=O)[C@@H](NC=O)C(C)CC)ccc1S(=O)(=O)Nc1cccc(OC(F)(F)F)c1 (stereo partly shown) [Example 1.108]
4,200 to 750,CCOc1cc(NC(=O)[C@H]2CC=CC[C@H]2O)ccc1S(=O)(=O)Nc1cccc(OC(F)(F)F)c1 [Example 1.173]
5,≤ 200,CCOc1cc(NC(=O)[C@@H](CO)C(C)CC)ccc1S(=O)(=O)Nc1cccc(OC(F)(F)F)c1 (stereo partly shown) [Example 1.297]
6,≤ 200,CCOc1cc(NC(=O)[C@@H](O)C2CCCC2)ccc1S(=O)(=O)Nc1cccc(OC(F)(F)F)c1 [Example 1.416]
7,≤ 200,CCOc1cc(NC(=O)[C@H](CO)C(C)C)ccc1S(=O)(=O)Nc1cccc(OC(F)(F)F)c1 [Example 1.139]
8,≤ 200,C=C(C)CC(CO)C(=O)Nc1ccc(S(=O)(=O)Nc2cccc(OC(F)(F)F)c2)c(OCC)c1 (stereo not shown) [Example 1.352]
9,≤ 200,CCOc1cc(NC(=O)[C@@H](O)C2CCCCC2)ccc1S(=O)(=O)Nc1cccc(OC(F)(F)F)c1 [Example 1.345]
10,≤ 200,CCOC(=O)C(C(=O)Nc1ccc(S(=O)(=O)Nc2cccc(OC(F)(F)F)c2)c(OCC)c1)C1CCCC1 (stereo not shown) [Example 1.144]
11,≤ 200,CCOc1cc(NC(=O)[C@@H](O)C(C)(C)C)ccc1S(=O)(=O)Nc1cccc(OC(F)(F)F)c1 [Example 1.577]
12,≤ 200,COc1cc(NC(=O)[C@@H](CO)C2CC2)ccc1S(=O)(=O)Nc1cccc(OC(F)(F)F)c1 [Example 1.283]
13,≤ 200,CCOc1cc(NC(=O)C(CC)CO)ccc1S(=O)(=O)Nc1cccc(OC(F)(F)F)c1 (stereo not shown) [Example 1.418]
14,≤ 200,CCOc1cc(NC(=O)C(C(=O)O)C2CCCCC2)ccc1S(=O)(=O)Nc1cccc(OC(F)(F)F)c1 (stereo not shown) [Example 1.484]
15,≤ 200,CCOc1cc(NC(=O)C(O)C2C=CCCC2)ccc1S(=O)(=O)Nc1cccc(OC(F)(F)F)c1 (stereo not shown) [Example 1.246]
16,2000 to 20000,CCOc1cc(NC(=O)C2CCN(C(C)=O)CC2)ccc1S(=O)(=O)Nc1cccc(OC(F)(F)F)c1 [Example 1.161]
17,750 to 2000,CCOc1cc(NC(=O)C2(O)CC2)ccc1S(=O)(=O)Nc1cccc(OC(F)(F)F)c1 [Example 1.318]
18,200 to 750,CCOc1cc(NC(=O)C(O)c2ccc(Br)cc2)ccc1S(=O)(=O)Nc1cccc(OC(F)(F)F)c1 (stereo not shown) [Example 1.564]
19,≤ 200,CCOc1cc(NC(=O)[C@@H](NS(C)(=O)=O)C(C)C)ccc1S(=O)(=O)Nc1cccc(OC(F)(F)F)c1 [Example 1.324]
20,≤ 200,C=C(C)CC(CCO)C(=O)Nc1ccc(S(=O)(=O)Nc2cccc(OC(F)(F)F)c2)c(OCC)c1 (stereo not shown) [Example 1.180]
21,750 to 2000,CCOc1cc(NC(=O)[C@H]2CC[C@](C)(O)CC2)ccc1S(=O)(=O)Nc1cccc(OC(F)(F)F)c1 [Example 1.227]
22,≤ 200,CCOc1cc(NC(=O)C(CN)c2ccccc2)ccc1S(=O)(=O)Nc1cccc(OC(F)(F)F)c1 (stereo not shown) [Example 1.104]
23,≤ 200,CCOc1cc(NC(=O)C(CO)C2CCOC2)ccc1S(=O)(=O)Nc1cccc(OC(F)(F)F)c1 (stereo not shown) [Example 1.199]
